In patent US20190166840A1, “SUBSTITUTED PYRAZOLINYL DERIVATIVES, PROCESSES FOR THEIR PREPARATION AND THEIR USE AS HERBICIDES AND/OR PLANT GROWTH REGULATORS” (BAYER CROPSCIENCE AKTIENGESELLSCHAFT, priority 2016, published 2019):
Values belong to the compound of their own block, whether it stands above or below them.

Key:
[1] = target: T1, photosystem II (PS II) (Spinacia oleracea, UniProt P69560); test: Activity determination of photosystem II (PS II) in thylakoid membranes, DCPIP reduction; assay type: biochemical; details: spinach thylakoid membranes, DCPIP 120 μM, 10 min at 22° C. with illumination
T1 construct: the chloroplasts were osmotically ruptured and the thylakoid membranes were then obtained by centrifugation; from tissue; host or cells: spinach leaves (thylakoid membrane preparation)
Description: Measurement of PS II Activity in Thylakoid Membranes
1. Preparation of the Thylakoid Membranes
Cooled fresh spinach leaves were comminuted and homogenized in 50 mM phosphate buffer, pH 6.8, 10 mM KCl, 0.34 M sucrose (sucrose buffer) (mixer, 1 g of plant material/ml). The homogenate was subsequently filtered through 4 layers of Miracloth and the chloroplasts were obtained by centrifugation: • 10 minutes (min) of centrifugation at 4400×g (4° C.). • The sediment was suspended in 25 ml of sucrose buffer and centrifuged for another 10 min at 4400×g (4° C.). • The sediment was then suspended in 40 ml of 50 mM phosphate buffer, pH 6.8, 10 mM KCl, without sucrose. • In this step, the chloroplasts were osmotically ruptured and the thylakoid membranes were then obtained by centrifugation (10 min, 4400×g, 4° C.). The membrane sediment was finally suspended in about 20 ml of 50 mM phosphate buffer, pH 6.8, 10 mM KCl. • After protein determination and activity determination, the membrane suspension was aliquoted and frozen in liquid nitrogen. The aliquots were stored at −80° C. Under these conditions, the photosystem II preparation is storage-stable for at least three months.
2. Activity Determination of the Photosystem II (PS II)
The electron transfer from PS II to an artificial electronic captor, 2,6-dichlorophenol-indophenol (DCPIP), is measured under the action of light. The concentration of the blue oxidized form of DCPIP can be determined spectraphotometrically at the wavelength l=595 nm. The enzyme-catalyzed reduction of DCPIP results in a colourless leuco form and thus to a decrease of absorption at 595 nm in the reaction batch, which is measured as a function of time.
The activity determination was carried out in microtiter plates (96 wells) in a reaction volume of 200 μl. 155 μl of dilute membrane suspension in 50 mM phosphate buffer, pH 6.8, 10 mM KCl were initially charged. Depending on the activity of the PS II preparation, the dilution was adjusted such that measurement of the decrease in absorption (λ=595 nm) was linear for at least 10 min.
Typical dilution series of the test compounds comprised 10 concentration steps in the range between 10^−9and 10^−5 M.
On each microtiter plate, a known PS II inhibitor, e.g. metribuzin, was used as standard for assessing the quality of the PS II test.
The reaction was initiated by addition of 40 μl DCPIP solution (600 μM in distilled water); the final concentration of DCPIP was 120 μM.
Absorption was measured over a period of 10 min at 22° C. and with illumination. For calculating the active compound concentration at which 50% of the enzyme activity is inhibited (IC50), the relative enzymatic activity (in %) was plotted as a function of the logarithm of the active compound concentration.

[2] = test system: Ipomoea purpurea; test: Post-emergence herbicidal action, PHBPU; assay type: in vivo; details: one-leaf stage, application rate 1280 g/ha, scored visually after about 3 weeks
Description: (§1) Post-Emergence Herbicidal Activity Seeds of mono- and dicotyledonous weed plants and crop plants were placed in sandy loam in wood fibre pots, covered with soil and then cultivated in a greenhouse under good growth conditions. Two to 3 weeks after sowing, the test plants were treated at the one-leaf stage, with the formulated compounds of the general formula (I) according to the invention being sprayed as an aqueous suspension or emulsion at an application rate of 600 l of water/ha (converted) with addition of 0.2% wetting agent, onto the green parts of the plants. After the test plants had been left to stand in the greenhouse for about 3 weeks under optimum growth conditions, the activity of the preparations was scored visually in percent in comparison to untreated controls. For example, 100% activity=the plants have died, 50% herbicidal activity or damage=plants reduced to 50% or plant material reduced by 50%, 0% activity=like control plants. […] Here, the herbicidal action of the compounds of the general formula (I) according to the invention was examined for the following harmful plants: PHBPU=Ipomoea purpurea The respective herbicidal action was in each case determined at the same point in time after application of the formulation in question, i.e. damage of the harmful plant in question in %. […]

[3] = test system: Viola tricolor; test: Post-emergence herbicidal action, VIOTR; assay type: in vivo; details: one-leaf stage, application rate 1280 g/ha, scored visually after about 3 weeks
Description: as §1, with “VIOTR=Viola tricolor” for “PHBPU=Ipomoea purpurea”

[4] = test system: Polygonum convolvulus (=Fallopia convolvulus); test: Post-emergence herbicidal action, POLCO; assay type: in vivo; details: one-leaf stage, application rate 1280 g/ha, scored visually after about 3 weeks
Description: as §1, with “POLCO=Polygonum convolvulus (=Fallopia convolvulus)” for “PHBPU=Ipomoea purpurea”

[5] = test system: Setaria viridis; test: Post-emergence herbicidal action, SETVI; assay type: in vivo; details: one-leaf stage, application rate 1280 g/ha, scored visually after about 3 weeks
Description: as §1, with “SETVI=Setaria viridis” for “PHBPU=Ipomoea purpurea”

SMILES: CC1=C(C)C(O)N(C2=NN(Cc3ccccc3)C(C)(C)C2)C1=O (stereo not drawn) [I.2-217]
pI50 [1]: 5.4

SMILES: CC1=C(C)C(O)N(C2=NN(c3ccccc3)C(C)C2)C1=O (stereo not drawn) [I.2-321]
IC50 ([1]; read-out: pI50 (converted)): 7.94 µM

SMILES: CC1=C(C)C(O)N(C2=NN(c3ccccn3)C(C)C2)C1=O (stereo not drawn) [I.2-432]
Post-emergence herbicidal action PHBPU, damage of the harmful plant [2]: 0%
Post-emergence herbicidal action VIOTR, damage of the harmful plant [3]: 80%
Post-emergence herbicidal action POLCO, damage of the harmful plant [4]: 0%
Post-emergence herbicidal action SETVI, damage of the harmful plant [5]: 80%

SMILES: CC1=C(Cl)C(=O)N(C2=NN(c3ccccc3)C(C)C2)C1O (stereo not drawn) [I.3-321]
pI50 [1]: 5.4

SMILES: CC1=C(Br)C(=O)N(C2=NN(c3ccccc3)CC2)C1O (stereo not drawn) [I.8-621]
Post-emergence herbicidal action PHBPU, damage of the harmful plant [2]: 90%
pI50 [1]: 5.3
Post-emergence herbicidal action VIOTR, damage of the harmful plant [3]: 80%
Post-emergence herbicidal action POLCO, damage of the harmful plant [4]: 90%
Post-emergence herbicidal action SETVI, damage of the harmful plant [5]: 60%

Continued, values first:

pI50 [1]: 5.5
SMILES: CC1=C(Cl)C(=O)N(C2=NN(C)C(c3ccc(Cl)cc3)C2)C1O (stereo not drawn) [I.3-1351]

pI50 [1]: 5.1
SMILES: CC1=C(Br)C(=O)N(C2=NN(C)C(c3ccccc3)C2)C1O (stereo not drawn) [I.8-1126]

pI50 [1]: 5.7
SMILES: CC1=C(Br)C(=O)N(C2=NN(C)C(c3ccc(Cl)cc3)C2)C1O (stereo not drawn) [I.8-1351]
